This passage reports IC50 and ring closure, yield of all isomers results from US20240189315A1, “Cyclic Pyridine Derivatives as cGAS Inhibitors” (Boehringer Ingelheim International GmbH, priority 2022, published 2024).

One may read the IC50 as the midpoint of a concentration-inhibition curve.

Molecules are shown by their SMILES. Like-named read-outs stand apart in the source and are kept apart here.

For series [1], the target named is T1, cellular cGAS activity in baculovirus-stimulated THP1-Dual cells (Homo sapiens (Human), UniProt Q8N884). The settings on record: Table 4; compounds and methyl ester prodrugs of PCT/EP2022/062480 and PCT/EP2022/062496; read-out: THP1(vir) IC50; cited from earlier work.
The subject of series [2] is pathway directly downstream of cGAS in cGAMP-stimulated THP1-Dual cells. The settings on record: Table 4; compounds and methyl ester prodrugs of PCT/EP2022/062480 and PCT/EP2022/062496; cited from earlier work.
Series [3] concerns the target cellular cGAS activity in dsDNA-stimulated human whole blood (Homo sapiens (Human), UniProt Q8N884). The settings on record: Table 4; compounds and methyl ester prodrugs of PCT/EP2022/062480 and PCT/EP2022/062496; read-out: hWB IC50; cited from earlier work.
For series [4] the following is noted: amide bond, HATU, 25.0 °C, 1.0 h.
Series [5] concerns pathway directly downstream of cGAS in cGAMP-stimulated THP1-Dual cells. The series is described as follows: cGAMP stimulated counter cell assay (THP1(cGAMP) IC50): IFN induction in cGAMP-stimulated THP1-Dual cells. The format is cell-based, human. As to conditions: Homo sapiens, THP1-Dual; Table 3; Compound No. 5 of WO 2022/174012; read-out: THP1(cGAMP) IC50. The essentials:
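THP1-Dual cells with IRF-driven Lucia luciferase reporter, stimulated by empty baculovirus (cGAS route) or by cGAMP (counter assay); 5000 cells/well, 8-point dilutions from 10 μM top, 1% DMSO, 18 h at 37° C. Luminescence read; IC50 by 4-parameter logistic fit against unstimulated low control.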

Another series concerns the target Human cGAS enzyme (Homo sapiens (Human), UniProt Q8N884). In words: Human cGAS enzyme assay (hcGAS IC50, in vitro), cGAMP formation by RapidFire MS.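 Further: recombinant human cGAS activated by 45 bp dsDNA with 30 µM each ATP and GTP, 90 min, cGAMP vs cyclic-di-GMP standard by MS, 8-point titration from 10 µM.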 It counts as biochemical. As to conditions: Table 3; Compound No. 5 of WO 2022/174012 re-tested in the applicant's assay.
A further series has as its system THP-1. As to conditions: Table 3, page 67/68 of WO 2022/174012; read-out: cellular IC50-value group (IFNβ ELISA stimulated with THP-1); cited from earlier work.
Series [6] deals with T1, cellular cGAS activity in baculovirus-stimulated THP1-Dual cells. In words: Human cGAS cell assay (THP1(vir) IC50): IFN induction in virus-stimulated THP1-Dual cells, IRF Lucia luciferase reporter.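 Further: Eight-point dilution series starting at 10 µM, 1% DMSO, 18 h at 37 °C, luminescence read-out, virus-free wells as 0% and DMSO-treated virus-stimulated wells as 100%.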 As to conditions: Table 3; Compound No. 5 of WO 2022/174012; read-out: THP1(vir) IC50. The format is cell-based.

T1 sequence (Q8N884 whole entry): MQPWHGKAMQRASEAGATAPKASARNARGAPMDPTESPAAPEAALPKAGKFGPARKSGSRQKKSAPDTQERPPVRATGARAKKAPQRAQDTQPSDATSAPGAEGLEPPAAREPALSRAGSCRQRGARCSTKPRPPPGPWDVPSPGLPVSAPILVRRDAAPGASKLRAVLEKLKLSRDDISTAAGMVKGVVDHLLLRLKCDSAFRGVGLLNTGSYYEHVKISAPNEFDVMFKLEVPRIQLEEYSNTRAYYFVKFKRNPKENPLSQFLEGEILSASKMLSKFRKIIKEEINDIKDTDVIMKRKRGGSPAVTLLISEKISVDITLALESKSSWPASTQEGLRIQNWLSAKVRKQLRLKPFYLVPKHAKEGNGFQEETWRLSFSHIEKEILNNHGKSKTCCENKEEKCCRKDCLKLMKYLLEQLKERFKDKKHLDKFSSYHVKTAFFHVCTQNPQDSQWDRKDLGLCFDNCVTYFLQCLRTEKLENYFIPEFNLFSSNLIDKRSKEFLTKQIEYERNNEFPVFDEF
Sequence of cellular cGAS activity in dsDNA-stimulated human whole blood (Q8N884 whole entry): as above
Sequence of Human cGAS enzyme (Q8N884 whole entry): as above

With `C[C@@H]1N(c2cc(Br)cnc2O[C@H]2C[C@@H](C(=O)O)N(c3nc(C(F)(F)F)nc4c3oc3ccccc34)C2)CCOC12COC2` [Ex. 1.10 of PCT/EP2022/062480], the IC50 was 91 nM in series [1], 16100 nM in series [2] and 33 nM in series [3].
On to `C[C@H]1CN2CC[C@]1(F)c1cc(Cl)cnc1O[C@H]1C[C@@H](C(=O)OC(C)(C)C)N(C1)c1nc(nc3c1oc1ccccc13)CC(=O)NCCOC2=O`, for which the ring closure, yield of all isomers in series [4] (from C[C@H]1CN(C(=O)OCCN)CC[C@]1(F)c1cc(Cl)cnc1O[C@H]1C[C@@H](C(=O)OC(C)(C)C)N(c2nc(CC(=O)O)nc3c2oc2ccccc23)C1, DMA, 15.75 mM) is 11.3%.
With `COC(=O)[C@@H]1C[C@H](Oc2ncc(Br)cc2N2CCOC3(COC3)[C@@H]2C)CN1c1nc(C(F)(F)F)nc2c1oc1ccccc12` [P02 of PCT/EP2022/062480], the IC50 in series [1] is 444 nM; in series [2] it was 17100 nM; in series [3], 5330 nM.
In the case of `COC(=O)[C@@H]1C[C@H](Oc2ncc(Cl)cc2[C@@]2(F)CCS(=O)(=O)C[C@@H]2C)CN1c1nc(C(F)F)nc2c1oc1ccccc12` [P02 of PCT/EP2022/062496], the figures for the IC50 in series [1], in series [2] and in series [3] were 29 nM, more than 16600 nM and 140 nM, respectively.
As to `Cc1nc(N2C[C@@H](CC(=O)Nc3ccc(-c4ccccc4)cc3)C[C@H]2C(=O)O)c2oc3ccccc3c2n1` [Compound 5 (BBL0100455), reference compound], the IC50 was more than 10000 nM in series [5], 55 nM on Human cGAS enzyme, less than 1000 nM with THP-1 and more than 10000 nM in series [6].
For `COC(=O)[C@@H]1C[C@H](Oc2ncc(Cl)cc2[C@@]2(OC)CC(C)(C)S(=O)(=O)C[C@@H]2C)CN1c1nc(C(F)F)nc2c1oc1ccccc12` [P03 of PCT/EP2022/062496], the IC50 in series [1] is 202 nM; in series [2], 20600 nM; in series [3], 1990 nM.
As for `C[C@@H]1N(c2cccnc2O[C@H]2C[C@@H](C(=O)O)N(c3nc(C(F)F)nc4c3oc3ccccc34)C2)CCOC12COC2` [Ex. 4.04 of PCT/EP2022/062480], the IC50 is 386 nM in series [1], more than 16600 nM in series [2] and 77 nM in series [3].
Turning to `C#Cc1cnc(O[C@H]2C[C@@H](C(=O)O)N(c3nc(C(F)(F)F)nc4c3oc3ccccc34)C2)c(N2CCOC3(COC3)[C@@H]2C)c1` [Ex. 1.12 of PCT/EP2022/062480], the IC50 was 7 nM in series [1], 11900 nM in series [2] and 15 nM in series [3].
On to `COC(=O)[C@@H]1C[C@H](Oc2ncc(-c3cccnc3OC)cc2N2CCOC3(COC3)[C@@H]2C)CN1c1nc(C(F)(F)F)nc2c1oc1ccccc12` [P04 of PCT/EP2022/062480], for which the IC50 was 67 nM in series [1], more than 16600 nM in series [2] and 2750 nM in series [3].
Consider `C#Cc1cnc(O[C@H]2C[C@@H](C(=O)O)N(c3nc(C(F)(F)F)nc4c3oc3ccccc34)C2)c([C@@]2(F)CCS(=O)(=O)C[C@@H]2C)c1` [Ex. 2.12 of PCT/EP2022/062496], for which the IC50 in series [1] was 8 nM; in series [2] it was 21800 nM; in series [3], 8 nM.
`C[C@H]1CN2CC[C@]1(F)c1cc(Cl)cnc1O[C@H]1C[C@@H](C(=O)OC(C)(C)C)N(C1)c1nc(nc3c1oc1ccccc13)CC(=O)NCCCC2=O` displayed a ring closure, yield of all isomers in series [4] (from C[C@H]1CN(C(=O)CCCN)CC[C@]1(F)c1cc(Cl)cnc1O[C@H]1C[C@@H](C(=O)OC(C)(C)C)N(c2nc(CC(=O)O)nc3c2oc2ccccc23)C1, DMF, 10.0 mM) of 42%.
For the compound `COc1ncccc1-c1cnc(O[C@H]2C[C@@H](C(=O)O)N(c3nc(C(F)(F)F)nc4c3oc3ccccc34)C2)c(N2CCOC3(COC3)[C@@H]2C)c1` [Ex. 3.14 of PCT/EP2022/062480], the results for the IC50 in series [1], in series [2] and in series [3] were 10 nM, 7830 nM and 26 nM, respectively.
For the compound `C[C@H]1CS(=O)(=O)CC[C@]1(F)c1cc(Cl)cnc1O[C@H]1C[C@@H](C(=O)O)N(c2nc(C(F)F)nc3c2oc2ccccc23)C1` [Ex. 1.13 of PCT/EP2022/062496], the IC50 was 6 nM in series [1], 22500 nM in series [2] and 6 nM in series [3].
`CO[C@]1(c2cc(Cl)cnc2O[C@H]2C[C@@H](C(=O)O)N(c3nc(C(F)F)nc4c3oc3ccccc34)C2)CC(C)(C)S(=O)(=O)C[C@@H]1C` [Ex. 1.05 of PCT/EP2022/062496]: the IC50 was 44 nM in series [1], 13200 nM in series [2] and 135 nM in series [3].
`C#Cc1cnc(O[C@H]2C[C@@H](C(=O)OC)N(c3nc(C(F)(F)F)nc4c3oc3ccccc34)C2)c([C@@]2(F)CCS(=O)(=O)C[C@@H]2C)c1` [P01 of PCT/EP2022/062496]: the IC50 was 11 nM in series [1], more than 16600 nM in series [2] and 67 nM in series [3].
In the case of `C#Cc1cnc(O[C@H]2C[C@@H](C(=O)OC)N(c3nc(C(F)(F)F)nc4c3oc3ccccc34)C2)c(N2CCOC3(COC3)[C@@H]2C)c1` [P03 of PCT/EP2022/062480], the IC50 was 188 nM in series [1], 22800 nM in series [2] and 1090 nM in series [3].
With `COC(=O)[C@@H]1C[C@H](Oc2ncccc2N2CCOC3(COC3)[C@@H]2C)CN1c1nc(C(F)F)nc2c1oc1ccccc12` [P01 of PCT/EP2022/062480], the IC50 is 358 nM in series [1], 26100 nM in series [2] and 1310 nM in series [3].
